Data published in publication PMC13192270, “RhlR quorum-sensing receptor ligand sensitivity regulates the differential expression of phenazine genes in Pseudomonas aeruginosa” (Journal of Bacteriology, 2026).
Residue numbers refer to the chain shown, from its start.

What was measured:
RhlR (T58F) = biological target: T1, RhlR (T58F) (Pseudomonas aeruginosa, UniProt P54292, T58F); test: E. coli prhlA-luxCDABE luciferase reporter assay; format: cell-based, Escherichia coli
T1 construct: expressed in transfected cells; host or cells: E. coli carrying pBAD-A-rhlR mutant, pCS26-prhlA-luxCDABE and pACYC-pqsE or empty pACYC
T1 sequence (P54292 1-241 T58F): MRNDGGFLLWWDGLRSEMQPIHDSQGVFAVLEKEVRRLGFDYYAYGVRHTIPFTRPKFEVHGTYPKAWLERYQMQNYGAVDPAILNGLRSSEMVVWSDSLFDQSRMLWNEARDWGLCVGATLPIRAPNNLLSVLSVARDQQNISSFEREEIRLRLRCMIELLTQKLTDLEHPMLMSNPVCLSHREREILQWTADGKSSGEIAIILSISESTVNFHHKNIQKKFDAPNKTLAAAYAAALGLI
Text: (§1) Previous analysis of the RhlR LBP focused on highly conserved residues that were known from other AHL-binding proteins to be important contacts for AHL molecules, particularly the lactone head group. We performed conservation analyses on 300 LuxR-type receptors to determine variable and moderately conserved residues in the LBP (Fig. 1B) and, in conjunction with our previously determined experimental structure of WT RhlR bound to the synthetic agonist mBTL, used for docking C4- and C6HSL. Based on our docking simulations, C4- and C6HSL occupy a similar position in the LBP as mBTL, a highly efficacious activator of RhlR (Fig. 1C; Fig. S1). We targeted residues A44, G46, T58, L69, Y72, D81, I84, W96, and W108 (Fig. 1B and C). These residues were selected because of their proximity to the acyl tail of C4HSL, as well as the differences in conservation that are observed at these sites. We used an E. coli luciferase reporter assay to monitor ligand-dependent activation of WT RhlR and RhlR variants. WT RhlR and RhlR variants were expressed under the control of an arabinose-inducible promoter (Fig. S2). Transcription was monitored by light production via the expression of the luxCDABE operon controlled by the RhlR-dependent promoter of rhlA. Binding of RhlR to the rhlA promoter is highly dependent on the C4HSL-RhlR interaction, based on ChIP-seq analyses performed in P. aeruginosa as well as previously published E. coli reporter systems ([34], [39]). After expressing WT RhlR and RhlR variants in the E. coli reporter system, we performed dose response assays using C4HSL to calculate the concentration of C4HSL required to activate the reporter system to 50% maximum levels (EC50 value; Table 1). As expected, transcription activation by WT RhlR increased with increased C4HSL levels, with an EC50 value of ~2 µM. We observed a range of responses. Figure 1C depicts the targeted residues, which are colored based on the effect of amino acid substitution.
(§2) RhlR requires the accessory-binding protein, PqsE, for maximal activity. To determine if PqsE expression altered the activation of RhlR variants, we assessed AHL-dependent RhlR activation of the prhlA-luxCDABE reporter in the presence of a third plasmid that constitutively expresses PqsE in E. coli. […] RhlR variants that were still active but with increased EC50 values for C4HSL could have their activity enhanced by PqsE. […] Thus, alterations to the LBP can diminish the additive effect of PqsE-dependent transcription, indicating a potential role of allosteric conformational changes dependent on ligand occupancy. […] RhlR variants at residues I84 and W108 could not be activated by C4HSL, and thus, light levels remained low at all concentrations that were tested. Unlike the aforementioned variants, RhlR I84M/W and RhlR W108F/Y were activated by the expression of PqsE (Fig. S4).
(§3) All E. coli strains in this study were grown overnight with shaking in 5 mL Luria-Bertani (LB) media supplemented with 100 µg/mL ampicillin, 50 µg/mL kanamycin, and 15 µg/mL tetracycline at 37°C overnight. Overnight cultures were diluted 1:100 into fresh media, grown at 37°C with shaking for 2 h until reaching OD600 = 0.4. Cultures were induced with a final concentration of 0.1% arabinose, and 198 μL of the induced culture was mixed with 2 μL of C4HSL dilutions in a clear-bottom, black-opaque 96-well plate (Corning) and grown at 37°C with shaking for 4 h. The C4HSL dilution series was performed 1:1 in dimethyl sulfoxide (DMSO) with a top final concentration of 10 μM. Luminescence and optical density were recorded using a Glomax (Promega) plate reader.

RhlR (T58I) = biological target: T2, RhlR (T58I) (Pseudomonas aeruginosa, UniProt P54292, T58I); test: E. coli prhlA-luxCDABE luciferase reporter assay; format: cell-based, Escherichia coli
T2 construct: expressed in transfected cells; host or cells: E. coli carrying pBAD-A-rhlR mutant, pCS26-prhlA-luxCDABE and pACYC-pqsE or empty pACYC
T2 sequence (P54292 1-241 T58I): T1 sequence (P54292 1-241 T58F) with F58I
Text: as §1, §2, §3

RhlR = tested on: RhlR; design: method as in PMID 28119451; settings: cited from earlier work
RhlR A44W = biological target: T3, RhlR A44W (Pseudomonas aeruginosa, UniProt P54292, A44W); test: E. coli prhlA-luxCDABE luciferase reporter assay; format: cell-based; settings: even at the highest dose of C4HSL tested
T3 construct: expressed in transfected cells; host or cells: E. coli carrying pBAD-A-rhlR mutant, pCS26-prhlA-luxCDABE and pACYC-pqsE or empty pACYC
Text: Previous analysis of the RhlR LBP focused on highly conserved residues that were known from other AHL-binding proteins to be important contacts for AHL molecules, particularly the lactone head group. We performed conservation analyses on 300 LuxR-type receptors to determine variable and moderately conserved residues in the LBP (Fig. 1B) and, in conjunction with our previously determined experimental structure of WT RhlR bound to the synthetic agonist mBTL, used for docking C4- and C6HSL. Based on our docking simulations, C4- and C6HSL occupy a similar position in the LBP as mBTL, a highly efficacious activator of RhlR (Fig. 1C; Fig. S1). We targeted residues A44, G46, T58, L69, Y72, D81, I84, W96, and W108 (Fig. 1B and C). These residues were selected because of their proximity to the acyl tail of C4HSL, as well as the differences in conservation that are observed at these sites. […] Transcription was monitored by light production via the expression of the luxCDABE operon controlled by the RhlR-dependent promoter of rhlA. […]
The range of responses to substitutions is best highlighted by changes at residue T58 (Fig. 2A). […] Indeed, of the LuxR-AHL experimentally determined structures, this region of the LBP is typically occupied by the acyl tail of long-chain AHLs or a hydrophobic residue ([5], [27], [29], [30], [42], [43]), a point we return to in the discussion. […]

**Q.** Which results are given for `CCCC(=O)N[C@H]1CCOC1=O` [C4HSL, N-butyryl-L-homoserine lactone]?
**A.** EC50 (RhlR (T58F); Vector (no pqsE)): 3210 nM; EC50 (RhlR (T58F); pqsE co-expressed): 198 nM; EC50 (RhlR (T58I); Vector (no pqsE)): 1820 nM; EC50 (RhlR (T58I); pqsE co-expressed): 120 nM; EC50 (RhlR): ~5000 nM; activation by C4HSL in the reporter system (RhlR A44W): not activated
